This note sets out measurements from ChEMBL document CHEMBL1146379, “Solid phase synthesis and SAR of small molecule agonists for the GPR40 receptor” (Bioorg Med Chem Lett, 2007).

The term EC50 denotes the concentration at which the effect is half-maximal. What is called half-life is how long it takes for the measured level to halve. As a reminder, the Ki is the equilibrium dissociation constant of an inhibitor or competing ligand from its target. A low value points to tighter binding. As a reminder, the IC50 is the point on the concentration scale where inhibition reaches its midpoint. A low value points to greater potency. For orientation: logD means lipophilicity at a set pH, counting ionised and neutral species. Low values mean lower lipophilicity, high ones higher lipophilicity. As a reminder, the solubility is the dissolved amount per volume that the medium holds. A lower solubility goes with little dissolved substance.

For data set [1], the target named is Sphingosine 1-phosphate receptor 1 (Homo sapiens, UniProt P21453). Briefly: Activity at S1P1 receptor.
Data set [2] in a line: Protein binding in rat plasma by ultrafiltration assay. The format is ADME, cell-free. To be noted: read-out: PB.
Data set [3] can be described thus: Half life in iv dosed rat. The data set is classed as ADME, organism-based. The settings on record: in vivo.
Data set [4] in a line: Volume of distribution at steady state in rat. The data set is classed as ADME, organism-based. To be noted: in vivo, read-out: Vdss.
Data set [5] concerns the target T1, Peroxisome proliferator-activated receptor gamma (Homo sapiens, UniProt P37231).
T1 sequence (P37231 whole entry): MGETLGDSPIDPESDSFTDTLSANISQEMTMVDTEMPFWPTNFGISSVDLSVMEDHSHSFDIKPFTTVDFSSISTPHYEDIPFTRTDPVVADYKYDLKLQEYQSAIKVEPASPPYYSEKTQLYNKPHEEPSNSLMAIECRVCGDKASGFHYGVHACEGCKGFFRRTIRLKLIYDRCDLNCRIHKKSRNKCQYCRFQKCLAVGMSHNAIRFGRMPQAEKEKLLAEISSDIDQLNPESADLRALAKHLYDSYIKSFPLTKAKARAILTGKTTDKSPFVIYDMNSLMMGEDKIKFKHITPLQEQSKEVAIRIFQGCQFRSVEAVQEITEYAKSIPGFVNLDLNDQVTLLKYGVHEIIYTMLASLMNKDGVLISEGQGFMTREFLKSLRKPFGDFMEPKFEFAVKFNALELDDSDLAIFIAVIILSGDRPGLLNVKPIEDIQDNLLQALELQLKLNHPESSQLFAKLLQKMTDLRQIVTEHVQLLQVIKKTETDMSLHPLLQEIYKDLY
The data set can be described thus: Activity at PPARgamma receptor.

Another data set deals with Cytochrome P450 3A4 (Homo sapiens, UniProt P08684). Briefly: Inhibition of CYP3A4. The data set is classed as ADME.
Data set [6] is described as follows: Distribution coefficient, log D at pH 7.4. The data set is classed as physicochemical. To be noted: octanol/water.
In data set [7] the target is T2, Peroxisome proliferator-activated receptor alpha (Homo sapiens, UniProt Q07869).
T2 sequence (Q07869 whole entry): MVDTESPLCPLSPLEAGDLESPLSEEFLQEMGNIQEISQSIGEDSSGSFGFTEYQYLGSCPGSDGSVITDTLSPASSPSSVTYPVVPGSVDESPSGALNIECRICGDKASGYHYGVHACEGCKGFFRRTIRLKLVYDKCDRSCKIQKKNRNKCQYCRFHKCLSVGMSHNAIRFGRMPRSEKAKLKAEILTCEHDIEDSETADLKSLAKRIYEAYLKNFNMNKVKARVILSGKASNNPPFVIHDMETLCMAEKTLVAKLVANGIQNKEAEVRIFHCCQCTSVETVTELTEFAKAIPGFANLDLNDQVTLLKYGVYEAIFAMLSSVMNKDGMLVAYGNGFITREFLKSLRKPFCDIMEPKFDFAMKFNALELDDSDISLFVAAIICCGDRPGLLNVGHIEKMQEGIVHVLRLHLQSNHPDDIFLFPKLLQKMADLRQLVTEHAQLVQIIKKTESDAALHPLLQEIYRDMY
Briefly: Activity at PPARalpha receptor.

Data set [8] addresses Free fatty acid receptor 1 (Homo sapiens, UniProt O14842). Briefly: Agonist activity at GPR40 receptor. The format is functional.
The nature of data set [9]: Permeability in MDCK cells expressing low Pgp. The settings on record: dog, MDCK type I; read-out: permeability. The format is ADME, cell-based, Canis lupus familiaris.
Data set [10] can be described thus: Solubility at pH 7.4. The format is physicochemical. The settings on record: buffer.
Data set [11] concerns the target Prostaglandin E2 receptor EP4 subtype (Homo sapiens, UniProt P35408). The data set can be described thus: Activity at EP4 receptor.
In a further data set the target is Cytochrome P450 2D6 (Homo sapiens, UniProt P10635). The data set can be described thus: Inhibition of CYP2D6. The format is ADME.
The species named for data set [12] is Homo sapiens. The data set can be described thus: Selectivity for GPR40 over GPR41.
Data set [13] addresses T3, Free fatty acid receptor 3 (Homo sapiens, UniProt O14843).
T3 sequence (O14843 whole entry): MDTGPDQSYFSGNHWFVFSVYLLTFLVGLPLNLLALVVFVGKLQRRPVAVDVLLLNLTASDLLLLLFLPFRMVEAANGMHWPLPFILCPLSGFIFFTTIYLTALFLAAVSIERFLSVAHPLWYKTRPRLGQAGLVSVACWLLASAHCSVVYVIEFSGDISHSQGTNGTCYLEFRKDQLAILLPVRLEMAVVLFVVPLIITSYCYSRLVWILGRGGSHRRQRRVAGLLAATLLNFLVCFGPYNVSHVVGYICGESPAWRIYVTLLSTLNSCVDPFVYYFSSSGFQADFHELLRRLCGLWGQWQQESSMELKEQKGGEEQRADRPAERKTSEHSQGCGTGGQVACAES
Briefly: Activity at GPR41 receptor.

Data set [14] addresses T4, Prostaglandin E2 receptor EP1 subtype (Homo sapiens, UniProt P34995).
T4 sequence (P34995 whole entry): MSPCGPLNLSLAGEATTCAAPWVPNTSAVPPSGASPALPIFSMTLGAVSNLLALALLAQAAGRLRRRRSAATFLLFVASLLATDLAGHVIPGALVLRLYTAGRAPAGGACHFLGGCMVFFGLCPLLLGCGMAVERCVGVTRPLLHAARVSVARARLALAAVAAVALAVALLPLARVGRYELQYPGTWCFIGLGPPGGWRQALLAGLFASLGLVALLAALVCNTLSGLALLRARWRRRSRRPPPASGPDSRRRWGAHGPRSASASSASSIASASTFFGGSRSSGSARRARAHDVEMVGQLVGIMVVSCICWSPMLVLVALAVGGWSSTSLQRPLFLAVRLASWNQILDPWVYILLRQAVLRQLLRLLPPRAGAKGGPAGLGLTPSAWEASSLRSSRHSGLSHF
Briefly: Activity at EP1 receptor.

The species named for data set [15] is Homo sapiens. The data set can be described thus: Selectivity for GPR40 over GPR43.
The target of data set [16] is T5, Peroxisome proliferator-activated receptor delta (Homo sapiens, UniProt Q03181).
T5 sequence (Q03181 whole entry): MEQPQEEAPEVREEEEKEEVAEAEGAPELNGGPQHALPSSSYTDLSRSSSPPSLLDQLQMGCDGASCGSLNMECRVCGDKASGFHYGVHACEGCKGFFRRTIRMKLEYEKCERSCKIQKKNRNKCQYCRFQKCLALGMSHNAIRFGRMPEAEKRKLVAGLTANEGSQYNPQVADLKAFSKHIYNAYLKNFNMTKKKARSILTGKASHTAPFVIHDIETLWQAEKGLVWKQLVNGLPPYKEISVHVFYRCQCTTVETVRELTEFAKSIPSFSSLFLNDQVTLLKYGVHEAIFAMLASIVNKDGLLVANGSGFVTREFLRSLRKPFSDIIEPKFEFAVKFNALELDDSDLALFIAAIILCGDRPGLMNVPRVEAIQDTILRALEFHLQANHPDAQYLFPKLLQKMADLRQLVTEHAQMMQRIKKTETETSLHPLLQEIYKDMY
The data set can be described thus: Activity at PPARdelta receptor.

Converted amounts (≈) assume the structure as drawn.

Cytochrome P450 2D6, sequence (P10635 whole entry): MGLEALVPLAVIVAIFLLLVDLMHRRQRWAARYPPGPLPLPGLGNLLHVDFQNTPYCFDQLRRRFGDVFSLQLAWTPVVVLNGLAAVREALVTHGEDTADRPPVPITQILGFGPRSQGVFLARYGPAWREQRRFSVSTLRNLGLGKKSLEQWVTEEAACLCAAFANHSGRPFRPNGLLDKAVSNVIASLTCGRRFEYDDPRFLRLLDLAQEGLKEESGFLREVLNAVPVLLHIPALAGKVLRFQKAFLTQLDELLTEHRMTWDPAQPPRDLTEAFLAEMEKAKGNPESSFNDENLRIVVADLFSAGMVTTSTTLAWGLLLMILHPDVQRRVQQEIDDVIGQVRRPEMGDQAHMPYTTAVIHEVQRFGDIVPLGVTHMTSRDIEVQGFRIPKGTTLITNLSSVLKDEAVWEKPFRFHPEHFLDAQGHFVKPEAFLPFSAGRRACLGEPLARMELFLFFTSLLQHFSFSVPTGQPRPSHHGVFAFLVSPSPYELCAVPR
Prostaglandin E2 receptor EP4 subtype, sequence (P35408 whole entry): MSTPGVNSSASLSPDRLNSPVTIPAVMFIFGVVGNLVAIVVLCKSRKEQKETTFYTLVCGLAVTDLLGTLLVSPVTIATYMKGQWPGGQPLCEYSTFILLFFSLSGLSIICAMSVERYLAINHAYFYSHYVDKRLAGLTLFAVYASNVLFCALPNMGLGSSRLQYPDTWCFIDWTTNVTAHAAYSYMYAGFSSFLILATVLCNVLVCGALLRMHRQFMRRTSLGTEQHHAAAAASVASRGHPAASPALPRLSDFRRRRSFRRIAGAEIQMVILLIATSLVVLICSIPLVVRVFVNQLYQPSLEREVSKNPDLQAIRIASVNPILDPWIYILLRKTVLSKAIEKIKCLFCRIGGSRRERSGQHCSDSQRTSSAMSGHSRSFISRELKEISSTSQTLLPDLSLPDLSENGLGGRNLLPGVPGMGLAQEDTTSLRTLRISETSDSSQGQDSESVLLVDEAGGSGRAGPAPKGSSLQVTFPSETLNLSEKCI
Cytochrome P450 3A4, sequence (P08684 whole entry): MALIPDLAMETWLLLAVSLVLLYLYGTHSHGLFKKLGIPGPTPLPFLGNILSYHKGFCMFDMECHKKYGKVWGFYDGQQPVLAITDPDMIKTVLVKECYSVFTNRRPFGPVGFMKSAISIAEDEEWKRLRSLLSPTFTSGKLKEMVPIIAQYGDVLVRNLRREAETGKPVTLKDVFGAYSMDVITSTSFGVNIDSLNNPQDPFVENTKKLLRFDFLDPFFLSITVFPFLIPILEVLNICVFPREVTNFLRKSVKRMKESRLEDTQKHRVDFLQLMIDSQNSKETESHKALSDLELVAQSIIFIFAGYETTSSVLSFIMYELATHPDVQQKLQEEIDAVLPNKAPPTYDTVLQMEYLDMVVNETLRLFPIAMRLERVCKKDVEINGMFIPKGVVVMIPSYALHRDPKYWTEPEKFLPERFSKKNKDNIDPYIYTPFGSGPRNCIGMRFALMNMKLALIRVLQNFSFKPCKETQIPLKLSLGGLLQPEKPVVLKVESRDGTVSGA
Sphingosine 1-phosphate receptor 1, sequence (P21453 whole entry): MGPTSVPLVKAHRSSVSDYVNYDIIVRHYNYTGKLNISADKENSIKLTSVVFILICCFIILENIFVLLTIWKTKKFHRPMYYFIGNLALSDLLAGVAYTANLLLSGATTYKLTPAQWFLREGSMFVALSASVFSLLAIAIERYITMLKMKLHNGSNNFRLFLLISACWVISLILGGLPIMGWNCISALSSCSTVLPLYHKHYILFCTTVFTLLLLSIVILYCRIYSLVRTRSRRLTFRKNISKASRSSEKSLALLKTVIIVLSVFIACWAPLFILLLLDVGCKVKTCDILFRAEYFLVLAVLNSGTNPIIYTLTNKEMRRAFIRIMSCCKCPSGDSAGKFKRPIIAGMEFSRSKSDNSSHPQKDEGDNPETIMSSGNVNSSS
Free fatty acid receptor 1, sequence (O14842 whole entry): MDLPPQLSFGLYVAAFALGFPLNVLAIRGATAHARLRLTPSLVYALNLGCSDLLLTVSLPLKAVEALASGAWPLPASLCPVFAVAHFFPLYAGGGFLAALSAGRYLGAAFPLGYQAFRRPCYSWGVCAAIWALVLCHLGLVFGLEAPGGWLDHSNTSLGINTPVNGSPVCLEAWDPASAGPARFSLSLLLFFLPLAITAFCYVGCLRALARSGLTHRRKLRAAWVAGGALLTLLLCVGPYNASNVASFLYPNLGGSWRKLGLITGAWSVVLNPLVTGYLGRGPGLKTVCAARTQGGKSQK

For the compound `O=C(O)CCc1ccc(NCc2cccc(Oc3ccccc3)c2)cc1` [GW9508], the EC50 in [1] is greater than 31.6 µM; in data set [8], 0.0794 µM; in data set [13] it was greater than 50.1 µM. In addition, the fraction unbound in data set [2] was less than 0.004. In data set [3], the half-life was 5.3 h. Moreover, in [4], the Vd is 4.7 L/kg. The Ki in [5] is greater than 3.16 µM; in data set [7], greater than 3.16 µM; in data set [11] it was greater than 3.16 µM; in data set [14], greater than 1.58 µM; in data set [16] it was greater than 3.16 µM. Also, the IC50 against Cytochrome P450 3A4 and against Cytochrome P450 2D6 was greater than 33 µM each time. In [6], the logD came to 1.95. The Papp in data set [9] is 59.9 ×10⁻⁶ cm/s. For the same compound, in data set [10], the concentration in solution (solubility) was 290 µg/mL (≈ 835 µM). The Fold change is 500 in the data set filed under Homo sapiens [12] and greater than 500 in the data set listed under Homo sapiens [15].
